Here are results for eleven compounds from ChEMBL document CHEMBL1129628, “Effect of ring size or an additional heteroatom on the potency and selectivity of bicyclic benzylamine-type inhibitors of phenylethanolamine N-methyltransferase” (J Med Chem, 1996).

As a reminder, the Ki is a dissociation constant, usually derived from enzyme kinetics or from competition with a known ligand.

For assay [1], the target named is T1, Phenylethanolamine N-methyltransferase (Bos taurus, UniProt P10938).
T1 sequence (P10938 whole entry): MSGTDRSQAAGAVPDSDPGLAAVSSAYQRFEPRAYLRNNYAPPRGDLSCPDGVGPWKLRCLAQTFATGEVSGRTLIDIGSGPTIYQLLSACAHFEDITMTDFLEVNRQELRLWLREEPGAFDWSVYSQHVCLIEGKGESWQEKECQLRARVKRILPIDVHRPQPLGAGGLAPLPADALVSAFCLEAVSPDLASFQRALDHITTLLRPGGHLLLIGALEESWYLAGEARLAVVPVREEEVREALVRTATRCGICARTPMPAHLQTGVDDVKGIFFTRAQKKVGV
Nature of the assay: In vitro for inhibition of Phenylethanolamine N-Methyltransferase (PNMT).

The nature of assay [2]: Selectivity ratio between Ki of alpha-2 adrenoceptor and Ki of PNMT.
The target in assay [3] is T2, Adrenergic receptor alpha-2 (Rattus norvegicus, UniProt P22086+P19328+P22909).
T2 sequence (P22086 whole entry): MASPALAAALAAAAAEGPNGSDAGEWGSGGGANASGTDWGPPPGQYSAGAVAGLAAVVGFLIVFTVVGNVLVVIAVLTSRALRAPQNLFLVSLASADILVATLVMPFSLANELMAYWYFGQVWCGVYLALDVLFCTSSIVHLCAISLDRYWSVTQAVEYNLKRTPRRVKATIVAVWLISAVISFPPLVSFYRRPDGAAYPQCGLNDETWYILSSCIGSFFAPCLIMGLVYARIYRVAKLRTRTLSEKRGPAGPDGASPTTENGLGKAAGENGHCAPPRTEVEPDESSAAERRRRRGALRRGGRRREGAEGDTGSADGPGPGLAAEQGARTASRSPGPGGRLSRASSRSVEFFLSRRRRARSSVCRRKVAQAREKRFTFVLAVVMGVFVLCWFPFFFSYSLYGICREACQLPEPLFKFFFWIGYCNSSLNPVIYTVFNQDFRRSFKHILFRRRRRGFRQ
T2 sequence (P19328 whole entry): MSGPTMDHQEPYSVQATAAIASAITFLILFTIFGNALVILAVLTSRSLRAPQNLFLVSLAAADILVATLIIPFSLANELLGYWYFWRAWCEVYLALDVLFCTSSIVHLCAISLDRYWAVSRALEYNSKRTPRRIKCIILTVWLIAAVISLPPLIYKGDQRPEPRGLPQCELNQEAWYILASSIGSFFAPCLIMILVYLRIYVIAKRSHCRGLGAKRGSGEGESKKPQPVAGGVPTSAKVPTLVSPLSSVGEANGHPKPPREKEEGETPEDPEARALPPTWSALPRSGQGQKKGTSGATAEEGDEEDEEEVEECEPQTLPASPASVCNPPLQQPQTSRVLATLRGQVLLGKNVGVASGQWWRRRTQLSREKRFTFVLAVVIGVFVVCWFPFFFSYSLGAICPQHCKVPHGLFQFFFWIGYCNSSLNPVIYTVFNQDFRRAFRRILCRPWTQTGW
T2 sequence (P22909 whole entry): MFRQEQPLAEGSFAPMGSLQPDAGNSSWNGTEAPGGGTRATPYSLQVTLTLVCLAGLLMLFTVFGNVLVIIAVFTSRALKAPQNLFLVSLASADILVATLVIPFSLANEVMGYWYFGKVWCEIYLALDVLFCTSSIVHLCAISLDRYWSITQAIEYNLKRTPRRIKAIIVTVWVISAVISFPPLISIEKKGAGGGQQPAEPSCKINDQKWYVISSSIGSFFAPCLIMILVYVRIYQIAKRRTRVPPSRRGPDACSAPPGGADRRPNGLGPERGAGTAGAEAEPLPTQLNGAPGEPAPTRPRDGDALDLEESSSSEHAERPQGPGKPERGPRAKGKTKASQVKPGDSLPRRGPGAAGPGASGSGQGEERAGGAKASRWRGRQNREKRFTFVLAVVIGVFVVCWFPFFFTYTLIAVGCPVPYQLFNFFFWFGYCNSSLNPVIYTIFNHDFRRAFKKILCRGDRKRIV
Nature of the assay: In vitro for binding affinity against Alpha-2 adrenergic receptor by radioligand [3H]clonidine in rat.

On to `c1ccc2c(c1)CNCCN2`, for which the Ki is 28 µM in assay [1] and 2.6 µM in assay [3]. The Ratio in assay [2] is 0.093.
For the compound `c1ccc2c(c1)CNC2`, the Ki in assay [1] stood at 231 µM; in assay [3] it was 0.82 µM. In assay [2], the Ratio was 0.0035.
For `c1ccc2c(c1)CCCNC2`, the Ki was determined as 3.34 µM in assay [1] and 11 µM in assay [3]. Also, in assay [2], the Ratio came to 3.2.
On the same counts, the results for `C[C@H]1Cc2ccccc2CN1` are 1.01 µM, 0.52 µM and 0.51.
Consider `c1ccc2c(c1)CNCCO2`, for which the Ki in assay [1] was determined as 21.2 µM; in assay [3], 4.1 µM. In assay [2], the Ratio was 0.19.
Turning to `NCc1ccccc1` [BENZYLAMINE], the figures for the Ki in assay [1] and in assay [3] were 179 µM and 20 µM, respectively. The Ratio in assay [2] is 0.11.
Consider `c1ccc2c(c1)CNCCS2`, for which the figures for the Ki in assay [1] and in assay [3] were 4.1 µM and 4.6 µM, respectively. Moreover, in assay [2], the Ratio is 1.1.
Regarding `CC1Cc2ccccc2CN1` (racemic), the figures for the Ki in assay [1] and in assay [3] were 2.13 µM and 0.84 µM, respectively. The Ratio in assay [2] amounted to 0.39.
In the case of `C[C@@H]1Cc2ccccc2CN1`, the Ki in assay [1] was found to be 38.3 µM; in assay [3] it was 6.2 µM. Further, the Ratio in assay [2] is 0.16.
On the same counts, the results for `c1ccc2c(c1)CCNC2` [1,2,3,4-TETRAHYDROISOQUINOLINE] are 9.67 µM, […] and […].
On the same counts, the results for `c1ccc2c(c1)CCCCNC2` are 21.3 µM, 16 µM and 0.73.
